This is an account of results in patent publication US11505558B1, “Antiviral heterocyclic compounds” (Enanta Pharmaceuticals, Inc., priority 2019, dated 2022).

Test [1] relates to genotype A, "Long" strain RSV. As to the kind of experiment: RSV-A assay (CPE, ATPlite readout in Hep-2 cells). It counts as cell-based. The conditions noted are these: human respiratory syncytial virus, HEp-2, Hep-2 cells, genotype A "Long" strain RSV, MOI 0.1; read-out: Human RSV-A (“Long” strain) EC50. The method in brief: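 Protection from RSV-induced cytopathic effect, measured as ATPlite luminescence after 5 days, gave EC50 values. Assay used genotype A Long strain at MOI 0.1 on Hep-2 cells seeded at 8,000/well in DMEM growth media with 10% FBS; compounds tested as 2-fold dilutions in duplicate.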

The test system of test [2] is recombinant HMPV CAN97-83 (MPV-GFP1). As to the kind of experiment: HMPV antiviral assay (MPV-GFP1 eGFP fluorescence in Vero E6 cells). It is filed as cell-based. Conditions: human metapneumovirus, Vero C1008, 120 h, read-out: HMPV EC50. The method, then: HMPV antiviral activity was evaluated using a recombinant version of HMPV CAN97-83 engineered to contain the coding sequence for enhanced green fluorescence protein (eGFP) in the 3′ end of the virus genome (MPV-GFP1, ViraTree). Vero E6 cells ([…]) were seeded at a density of 12,000 cells/100 μL/well into 96-well cell plates one day prior to the assay. On the day of screening, the cell culture medium was aspirated from the wells and cells were washed twice with serum-free Eagle's Modified Essential Medium (EMEM, ATCC #) containing 1% penicillin-streptomycin (Invitrogen) (SF-EMEM). Cell washes were performed by dispensing 100 μL SF-EMEM per well and immediately aspirating the wash medium from the well. Following the second wash step, serum-free OptiMEM (Invitrogen, Cat No.) (SF-OptiMEM) containing 0.5 μg/mL TPCK-Trypsin (VENDOR) and 1% penicillin-streptomycin was added to the cells at 50 μL/well. Compounds were added into the 96-well plates using a JANUS automated liquid handling system (VENDOR). Compounds were initially diluted 1:50 into an intermediate 96-well plate containing SF-OptiMEM prior to transfer to the assay plate (25 μL/well). Each of the test compounds were tested in duplicate wells at final concentrations starting from 8 μM or 2 μM using ½ stepwise dilutions for a total of 8 points. Virus infection was performed by preparing a working stock of MPV-GFP1 at a multiplicity of infection (MOI) equal to 0.05/25 μL and aliquoting 25 μL of virus inoculum to the compound and positive control wells. SF-OptiMEM was added (25 μL/well) to the appropriate wells to serve as a virus-free negative control for the assay. The final DMSO concentration of all wells is 0.5%. Plates were incubated at 32° C., 5% CO2 for 5 days.
After 5 days incubation, eGFP fluorescence intensity was measured at […] using a Spectramax i3X plate reader (VENDOR). Percent viral inhibition was calculated using the following equation: y=[[…]−(XQ/XP)]×100 Where XQ is the fluorescence intensity measured in a well containing recombinant MPV-GFP1-infected, compound-treated cells and XP is the average fluorescence intensity measured in the wells containing untreated cells infected with recombinant virus. EC50 values were then calculated by non-linear regression using a four parameter curve logistic equation. The curve fit model employed was XLFit Dose Response One Site Model 200: y=(A+(B/(1+((x/C)^D)))) Where A is the minimum y value, B is the maximum y value, C is the log EC50 value, and D is the slope factor. […] EC50 ranges are as follows: A<0.5 μM; B>0.5 μM.

Where only a bound is given, the exact number is not on record here.

Broadly, the EC50 is the midpoint of the concentration-response curve. Turning to `C[C@]1(C(N)=O)COc2c1cc([C@@](O)(CNC(=O)c1cc(OC3CC3)c3ncccc3c1)C(F)(F)F)nc2-c1ccc(F)cc1` [Example 61], the EC50 in test [1] is below 0.2 µM; in test [2], below 0.5 µM.

Take `COc1cc(C(=O)NC[C@](O)(c2cc3c(c(-c4ccc(F)cc4)n2)OC[C@]3(C)C(N)=O)C(F)(F)F)ccc1OC1CC1` [Example 62]: the figures for the EC50 in test [1] and in test [2] were below 0.2 µM and below 0.5 µM, respectively.

On to `COc1cc(C(=O)NC[C@](O)(c2cc3c(c(-c4ccc(F)cc4)n2)OC[C@]3(C)C(N)=O)C(F)(F)F)cc2ccccc12` [Example 69], for which the EC50 in test [1] was above 0.2 µM; in test [2], above 0.5 µM.

Take `COc1cc(C(=O)NC[C@](O)(c2cc3c(c(-c4ccc(F)cc4)n2)OC[C@]3(C)CC#N)C(F)(F)F)cc2cccnc12` [Example 74]: the figures for the EC50 in test [1] and in test [2] were below 0.2 µM and below 0.5 µM, respectively.

For the compound `COc1cc(C(=O)NC[C@](O)(c2cc3c(c(-c4ccc(F)cc4)n2)OC[C@]3(C)CC(N)=O)C(F)(F)F)cc2cccnc12` [Example 75], the EC50 was below 0.2 µM in test [1] and above 0.5 µM in test [2].

Take `C[C@]1(C(N)=O)COc2c1cc([C@](O)(CNC(=O)c1cc(OC3CC3)c3ncccc3c1)C(F)(F)F)nc2-c1ccc(F)c(Cl)c1` [Example 79]: the EC50 in test [1] is below 0.2 µM; in test [2], below 0.5 µM.

With `C[C@]1(C(N)=O)COc2c1cc([C@](O)(CNC(=O)c1cc(OC3CC3)c3ncccc3c1)C(F)(F)F)nc2-c1ccc(F)c(F)c1` [Example 80], the results for the EC50 in test [1] and in test [2] were below 0.2 µM and below 0.5 µM, respectively.

Turning to `C[C@]1(C(N)=O)COc2c1cc([C@](O)(CNC(=O)c1cc(OC3CC3)c3ncccc3c1)C(F)(F)F)nc2-c1csc2c(F)cccc12` [Example 81], the EC50 in test [1] is below 0.2 µM; in test [2] it was below 0.5 µM.

With `C[C@]1(C(N)=O)COc2c1cc([C@](O)(CNC(=O)c1cc(OC3CC3)c3ncccc3c1)C(F)(F)F)nc2-c1ccc(C(F)(F)F)cc1` [Example 82], the EC50 in test [1] was below 0.2 µM; in test [2], above 0.5 µM.

Regarding `C[C@]1(C(N)=O)COc2c1cc([C@](O)(CNC(=O)c1cc(OC3CC3)c3ncccc3c1)C(F)(F)F)nc2-c1ccc(C#N)cc1` [Example 83], the EC50 in test [1] is below 0.2 µM; in test [2], above 0.5 µM.

With `C[C@]1(C(N)=O)COc2c1cc([C@](O)(CNC(=O)c1cc(OC3CC3)c3ncccc3c1)C(F)(F)F)nc2-c1ccc(F)c(C#N)c1` [Example 84], the EC50 is above 0.2 µM in test [1] and above 0.5 µM in test [2].

As for `C[C@]1(C(N)=O)COc2c1cc([C@@](O)(CNC(=O)c1cc(OC3CC3)c3ncccc3c1)C(F)(F)F)nc2-c1ccc(F)c(C(F)(F)F)c1` [Example 85], the EC50 was below 0.2 µM in test [1] and below 0.5 µM in test [2].

Take `COc1cc(C(=O)NC[C@](O)(c2cc3c(c(-c4ccc(F)c(Cl)c4)n2)OC[C@]3(C)C(N)=O)C(F)(F)F)cc2cccnc12` [Example 86]: the EC50 in test [1] is below 0.2 µM; in test [2], below 0.5 µM.

For the compound `COc1cc(C(=O)NC[C@](O)(c2cc3c(c(-c4ccc(F)c(F)c4)n2)OC[C@]3(C)C(N)=O)C(F)(F)F)cc2cccnc12` [Example 87], the results for the EC50 in test [1] and in test [2] were below 0.2 µM and above 0.5 µM, respectively.

Turning to `COc1cc(C(=O)NC[C@](O)(c2cc3c(c(-c4ccc(F)c(Cl)c4)n2)OC[C@]3(C)C(N)=O)C(F)(F)F)ccc1OC1CC1` [Example 88], the figures for the half-maximal effective concentration (EC50) in test [1] and in test [2] were below 0.2 µM and below 0.5 µM, respectively.

For `COc1cc(C(=O)NC[C@](O)(c2cc3c(c(-c4ccc(F)c(F)c4)n2)OC[C@]3(C)C(N)=O)C(F)(F)F)ccc1OC1CC1` [Example 89], the values for the EC50 in test [1] and in test [2] were below 0.2 µM and below 0.5 µM, respectively.

As for `C[C@]1(C(N)=O)COc2c1cc([C@@](O)(CNC(=O)c1ccc(OC3CC3)c(OC3CC3)c1)C(F)(F)F)nc2-c1ccc(F)c(Cl)c1` [Example 90], the EC50 is below 0.2 µM in test [1] and below 0.5 µM in test [2].

As for `C[C@]1(C(N)=O)COc2c1cc([C@@](O)(CNC(=O)c1ccc(OC3CC3)c(OC3CC3)c1)C(F)(F)F)nc2-c1ccc(F)c(F)c1` [Example 91], the EC50 was below 0.2 µM in test [1] and below 0.5 µM in test [2].

For the compound `C[C@]1(C(N)=O)COc2c1cc([C@@](O)(CNC(=O)c1ccc(OC3CC3)c(OC3CC3)c1)C(F)(F)F)nc2-c1csc2c(F)cccc12` [Example 92], the EC50 is below 0.2 µM in test [1] and below 0.5 µM in test [2].

As to `C[C@]1(C(N)=O)COc2c1cc([C@@](O)(CNC(=O)c1ccc(OC3CC3)c(OC3CC3)c1)C(F)(F)F)nc2-c1ccc(C(F)(F)F)cc1` [Example 93], the results for the EC50 in test [1] and in test [2] were below 0.2 µM and above 0.5 µM, respectively.

Turning to `C[C@]1(C(N)=O)COc2c1cc([C@@](O)(CNC(=O)c1ccc(OC3CC3)c(OC3CC3)c1)C(F)(F)F)nc2-c1ccc(C#N)cc1` [Example 94], the EC50 in test [1] is below 0.2 µM; in test [2], below 0.5 µM.

With `C[C@]1(C(N)=O)COc2c1cc([C@@](O)(CNC(=O)c1ccc(OC3CC3)c(OC3CC3)c1)C(F)(F)F)nc2-c1ccc(F)c(C#N)c1` [Example 95], the EC50 in test [1] was below 0.2 µM; in test [2] it was above 0.5 µM.

Consider `C[C@]1(C(N)=O)COc2c1cc([C@@](O)(CNC(=O)c1ccc(OC3CC3)c(OC3CC3)c1)C(F)(F)F)nc2-c1ccc(F)c(C(F)(F)F)c1` [Example 96], for which the concentration for a half-maximal effect (EC50) in test [1] is below 0.2 µM; in test [2], below 0.5 µM.

Consider `Cc1cncc(-c2cc(C(=O)NC[C@](O)(c3cc4c(c(-c5ccc(F)cc5)n3)OC[C@]4(C)C(N)=O)C(F)(F)F)ccc2OC2CC2)c1` [Example 103], for which the EC50 in test [1] is below 0.2 µM; in test [2] it was above 0.5 µM.

As for `C[C@]1(C(N)=O)COc2c1cc([C@@](O)(CNC(=O)c1ccc(OC3CC3)c(-c3cncc(C(F)(F)F)c3)c1)C(F)(F)F)nc2-c1ccc(F)cc1` [Example 104], the EC50 in test [1] was above 0.2 µM; in test [2] it was above 0.5 µM.

Turning to `C[C@]1(C(N)=O)COc2c1cc([C@@](O)(CNC(=O)c1ccc(OC3CC3)c(-c3cccc(C(F)(F)F)n3)c1)C(F)(F)F)nc2-c1ccc(F)cc1` [Example 110], the EC50 in test [1] was below 0.2 µM; in test [2], above 0.5 µM.

For `C[C@]1(C(N)=O)COc2c1cc([C@@](O)(CNC(=O)c1ccc(OC3CC3)c(-c3cnccn3)c1)C(F)(F)F)nc2-c1ccc(F)cc1` [Example 114], the EC50 in test [1] is below 0.2 µM; in test [2], above 0.5 µM.

Take `C[C@]1(C(N)=O)COc2c1cc([C@@](O)(CNC(=O)c1ccc(OC3CC3)c(-c3ccncn3)c1)C(F)(F)F)nc2-c1ccc(F)cc1` [Example 116]: the 50% effective concentration (EC50) was below 0.2 µM in test [1] and above 0.5 µM in test [2].

Take `C[C@]1(C(N)=O)COc2c1cc([C@@](O)(CNC(=O)c1ccc(OC3CC3)c(C3CC3)c1)C(F)(F)F)nc2-c1ccc(F)cc1` [Example 123]: the figures for the EC50 in test [1] and in test [2] were below 0.2 µM and above 0.5 µM, respectively.

On to `C[C@]1(C(N)=O)COc2c1cc([C@@](O)(CNC(=O)c1ccc(OC3CC3)c(-c3ncco3)c1)C(F)(F)F)nc2-c1ccc(F)cc1` [Example 124], for which the EC50 is below 0.2 µM in test [1] and above 0.5 µM in test [2].

As for `Cc1ncc(-c2cc(C(=O)NC[C@](O)(c3cc4c(c(-c5ccc(F)cc5)n3)OC[C@]4(C)C(N)=O)C(F)(F)F)ccc2OC2CC2)s1` [Example 126], the EC50 in test [1] is below 0.2 µM; in test [2], above 0.5 µM.

Regarding `C[C@]1(C(N)=O)COc2c1cc([C@@](O)(CNC(=O)c1ccc(OC3CC3)c(-c3ncccn3)c1)C(F)(F)F)nc2-c1ccc(F)cc1` [Example 127], the EC50 in test [1] was below 0.2 µM; in test [2], above 0.5 µM.
